In patent US20230201118A1, “PRODRUG COPOLYMERS AND POLYMERIC MICELLES THEREOF FOR THE DELIVERY OF SHORT-CHAIN FATTY ACIDS, THE PROMOTION OF GUT HEALTH, AND THE TREATMENT OF IMMUNE AND/OR INFLAMMATORY CONDITIONS AND FOOD ALLERGY” (The University of Chicago, priority 2021, published 2023):

System: APCs in the draining LNs
Test: Subcutaneous LPS stimulation: activation markers CD40 and CD86 on APCs in draining LNs
Format: in vivo, mouse
Details: s.c. treatment, LPS challenge on Day 6
Experimental: In order to assess the ability of lymph node targeted Neg-ButM in suppressing the activation of APCs, the investors tested on a mouse model of subcutaneous lipopolysaccharide (LPS) stimulation and evaluated on the activation marker including CD40 and CD86 on the major APCs in the draining LNs. Mice were injected with either PBS, sodium butyrate (NaBut), NtL-ButM, or Neg-ButM subcutaneously at the abdomen site. On Day 6, Mice were challenged with LPS on the same injection site, and sacrificed the next day for the cellular analysis.

In the case of `CCCC(=O)[O-].[Na+]` [sodium butyrate], the “suppression of APC activation” value is reported as “neither the NtL-ButM, nor sodium butyrate showed any significant suppression on the APC activations”.
